Where two headings read alike, the source gives them in different places.
System: test plant species
Experiment: Post-emergent herbicidal activity test (greenhouse, foliar spray, visual growth reduction)
Format: in vivo
Conditions: post-emergence, 336 h, 140 g ai/ha
In short: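 Visual percent injury (0-100) rated 14 d after treatment, relative to nontreated and solvent-blank plants. Test plants at first or second true leaf stage received an overhead track-sprayer application at 187 L/ha. Compounds were formulated in aqueous acetone/DMSO carrier containing crop oil concentrate and X-77 surfactant.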

[1] = ECHCG: barnyardgrass (Echinochloa crus-galli), 14 days after application, read-out: Visual Growth Reduction (%) 14 Days After Application, ECHCG
[2] = IPOHE: ivy-leaf morning glory (Ipomoea hederacea), 14 days after application, read-out: Visual Growth Reduction (%) 14 Days After Application, IPOHE
[3] = KCHSC: kochia (Bassia scoparia), 14 days after application, read-out: Visual Growth Reduction (%) 14 Days After Application, KCHSC
[4] = ORYSA: rice (Oryza sativa), 14 days after application, read-out: Visual Growth Reduction (%) 14 Days After Application, ORYSA
[5] = SETFA: giant foxtail (Setaria faberi), 14 days after application, read-out: Visual Growth Reduction (%) 14 Days After Application, SETFA
[6] = SORVU: grain sorghum (Sorghum vulgare), 14 days after application, read-out: Visual Growth Reduction (%) 14 Days After Application, SORVU
[7] = STEME: common chickweed (Stellaria media), 14 days after application, read-out: Visual Growth Reduction (%) 14 Days After Application, STEME
[8] = TRZAS: wheat, spring (Triticum aestivum), 14 days after application, read-out: Visual Growth Reduction (%) 14 Days After Application, TRZAS
[9] = blackgrass (Alopecurus myosuroides), 14 Days After Application, read-out: Visual Growth Reduction (%) ALOMY
[10] = canada thistle (Cirsium arvense), 14 Days After Application, read-out: Visual Growth Reduction (%) CIRAR
[11] = crabgrass (Digitaria sanguinalis), 14 Days After Application, read-out: Visual Growth Reduction (%) DIGSA
[12] = lambsquarters (Chenopodium album), 14 Days After Application, read-out: Visual Growth Reduction (%) CHEAL
[13] = redroot pigweed (Amaranthus retroflexus), 14 Days After Application, read-out: Visual Growth Reduction (%) AMARE
[14] = wild oat (Avena fatua), 14 Days After Application, read-out: Visual Growth Reduction (%) AVEFA
[15] = yellow nutsedge (Cyperus esculentus), 14 Days After Application, read-out: Visual Growth Reduction (%) CYPES

| SMILES | pest or weed control at 140 g/ha [1] [%] | pest or weed control at 140 g/ha [2] [%] | pest or weed control at 140 g/ha [3] [%] | pest or weed control at 140 g/ha [4] [%] | pest or weed control at 140 g/ha [5] [%] | pest or weed control at 140 g/ha [6] [%] | pest or weed control at 140 g/ha [7] [%] | pest or weed control at 140 g/ha [8] [%] | pest or weed control at 140 g/ha [9] [%] | pest or weed control at 140 g/ha [10] [%] | pest or weed control at 140 g/ha [11] [%] | pest or weed control at 140 g/ha [12] [%] | pest or weed control at 140 g/ha [13] [%] | pest or weed control at 140 g/ha [14] [%] | pest or weed control at 140 g/ha [15] [%] |
| --- | --- | --- | --- | --- | --- | --- | --- | --- | --- | --- | --- | --- | --- | --- | --- |
| COC(=O)c1nc(-c2cc(F)c3c(c2)OC(F)(F)O3)ccc1Cl [F367, Methyl 3-chloro-6-(2,2,7-trifluorobenzo[d][1,3]dioxol-5-yl)picolinate] | 0 to 29 | 95 to 100 | 0 to 29 | 0 to 29 | 0 to 29 | 0 to 29 | 0 to 29 | 0 to 29 | 0 to 29 | 0 to 29 | 75 to 84 | 0 to 29 | 0 to 29 | 0 to 29 | 0 to 29 |
| O=C(O)c1nc(-c2cc(F)c3c(c2)OC(F)(F)O3)ccc1Cl [F368, 3-Chloro-6-(2,2,7-trifluorobenzo[d][1,3]dioxol-5-yl)picolinic acid] | 0 to 29 | 95 to 100 | 0 to 29 | 0 to 29 | 45 to 59 | 75 to 84 | 0 to 29 | 0 to 29 | 0 to 29 | 0 to 29 | 75 to 84 | 0 to 29 | 0 to 29 | 0 to 29 | 0 to 29 |
| COC(=O)c1nc(-c2ccc3c(c2OC)OC(F)(F)O3)ccc1Cl [F369, Methyl 3-chloro-6-(2,2-difluoro-4-methoxybenzo[d][1,3]dioxol-5-yl)picolinate] | 45 to 59 | 95 to 100 | 30 to 44 | 0 to 29 | 60 to 74 | 85 to 94 | 0 to 29 | 60 to 74 | 30 to 44 | 85 to 94 | 85 to 94 | 30 to 44 | 60 to 74 | 30 to 44 | 0 to 29 |
| COC(=O)c1nc(-c2cc(Cl)c(C(F)(F)F)cc2C)c(F)cc1Cl [F370, Methyl 3-chloro-6-(5-chloro-2-methyl-4-(trifluoromethyl)phenyl)-5-fluoropicolinate] | 0 to 29 | 95 to 100 | 0 to 29 | 0 to 29 | 60 to 74 | 85 to 94 | 0 to 29 | 0 to 29 | 0 to 29 | 75 to 84 | 45 to 59 | 45 to 59 | 85 to 94 | 0 to 29 | 0 to 29 |
| COC(=O)c1nc(-c2cc(Cl)c(C(F)(F)F)cc2C)ccc1Cl [F371, Methyl 3-chloro-6-(5-chloro-2-methyl-4-(trifluoromethyl)phenyl)picolinate] | 0 to 29 | 95 to 100 | 0 to 29 | 0 to 29 | 0 to 29 | 75 to 84 | 0 to 29 | 0 to 29 | 0 to 29 | 0 to 29 | 45 to 59 | 30 to 44 | 30 to 44 | 0 to 29 | 0 to 29 |
| C=Cc1cc(-c2nc(C(=O)OC)c(Cl)cc2F)c(OC)c2c1OC(F)(F)O2 [F372, Methyl 3-chloro-6-(2,2-difluoro-4-methoxy-7-vinylbenzo[d][1,3]dioxol-5-yl)-5-fluoropicolinate] | 0 to 29 | 95 to 100 | 0 to 29 | 0 to 29 | 0 to 29 | 30 to 44 | 0 to 29 | 0 to 29 | 0 to 29 | 0 to 29 | 0 to 29 | 0 to 29 | 45 to 59 | 0 to 29 | 0 to 29 |
| COC(=O)c1nc(-c2ccc(C(F)(F)F)cc2Cl)c(F)cc1F [F373, Methyl 6-(2-chloro-4-(trifluoromethyl)phenyl)-3,5-difluoropicolinate] | 75 to 84 | 95 to 100 | 75 to 84 | 0 to 29 | 75 to 84 | 95 to 100 | 30 to 44 | 30 to 44 | 0 to 29 | 95 to 100 | 95 to 100 | 95 to 100 | 95 to 100 | 45 to 59 | 0 to 29 |
| COC(=O)c1nc(-c2ccc(C(F)(F)F)cc2Br)c(F)cc1F [F374, Methyl 6-(2-bromo-4-(trifluoromethyl)phenyl)-3,5-difluoropicolinate] | 75 to 84 | 95 to 100 | 75 to 84 | 45 to 59 | 85 to 94 | 95 to 100 | 0 to 29 | 60 to 74 | 45 to 59 | 95 to 100 | 85 to 94 | 95 to 100 | 95 to 100 | 45 to 59 | 0 to 29 |
| COC(=O)c1nc(-c2ccc(C(F)(F)F)cc2F)c(F)cc1F [F375, Methyl 3,5-difluoro-6-(2-fluoro-4-(trifluoromethyl)phenyl)picolinate] | 85 to 94 | 95 to 100 | 60 to 74 | 0 to 29 | 85 to 94 | 85 to 94 | 0 to 29 | 75 to 84 | 45 to 59 | 85 to 94 | 85 to 94 | 85 to 94 | 95 to 100 | 60 to 74 | 0 to 29 |
| COC(=O)c1nc(-c2ccc(C(F)(F)F)cc2C)c(F)cc1F [F376, Methyl 3,5-difluoro-6-(2-methyl-4-(trifluoromethyl)phenyl)picolinate] | 0 to 29 | 95 to 100 | 45 to 59 | 0 to 29 | 60 to 74 | 85 to 94 | 0 to 29 | 0 to 29 | 0 to 29 | 60 to 74 | 60 to 74 | 85 to 94 | 95 to 100 | 0 to 29 | 0 to 29 |

Source: patent publication US20230017045A1, “PYRIDINE AND PYRIMIDINE CARBOXYLATE HERBICIDES AND METHODS OF USE THEREOF” (Dow AgroSciences LLC, priority 2017, published 2023)
